Experimental data taken from patent publication US20170190671A1, “BIS(ARYL)CATECHOL DERIVATIVES AS HERBICIDES” (E I DU PONT DE NEMOURS AND COMPANY, priority 2014, published 2017).

Tests used:
Assay type in all cases: in vivo
[1] = tested on: barnyardgrass (Echinochloa crus-galli); experiment: Test A preemergence; details: Echinochloa crus-galli, pre-emergence, 240 h; for pest or weed control at 31 g/ha: 31 g ai/ha, 0 to 100 scale (0 no effect, 100 complete control), read-out: Barnyardgrass plant response rating; for pest or weed control at 125 g/ha: 125 g ai/ha, 0 to 100 scale, read-out: Plant response rating, Barnyardgrass
Source text: (§1) Seeds of plant species selected from barnyardgrass (Echinochloa crus-galli), kochia (Kochia scoparia), ragweed (common ragweed, Ambrosia elatior), Italian ryegrass (Lolium multiflorum), large (Lg) crabgrass (Digitaria sanguinalis), giant foxtail (Setaria faberii), morningglory (Ipomoea spp.), pigweed (Amaranthus retroflexus), velvetleaf (Abutilon theophrasti), wheat (Triticum aestivum), and corn (Zea mays) were planted into a blend of loam soil and sand and treated preemergence with a directed soil spray using test chemicals formulated in a non-phytotoxic solvent mixture which included a surfactant.
(§2) At the same time, plants selected from these crop and weed species and also blackgrass (Alopecurus myosuroides), and galium (catchweed bedstraw, Galium aparine) were planted in pots containing the same blend of loam soil and sand and treated with postemergence applications of test chemicals formulated in the same manner. Plants ranged in height from 2 to 10 cm and were in the one- to two-leaf stage for the postemergence treatment. Treated plants and untreated controls were maintained in a greenhouse for approximately 10 days, after which time all treated plants were compared to untreated controls and visually evaluated for injury. Plant response ratings, summarized in Table A, are based on a 0 to 100 scale where 0 is no effect and 100 is complete control. A dash (-) response means no test result.

[2] = tested on: ragweed (common ragweed, Ambrosia elatior); experiment: Test A preemergence; details: Ambrosia artemisiifolia, pre-emergence, 240 h; for pest or weed control at 31 g/ha: 31 g ai/ha, 0 to 100 scale (0 no effect, 100 complete control), read-out: Ragweed plant response rating; for pest or weed control at 125 g/ha: 125 g ai/ha, 0 to 100 scale, read-out: Plant response rating, Ragweed
Source text: as §1, §2

[3] = tested on: Italian ryegrass (Lolium multiflorum); experiment: Test A preemergence; details: Lolium multiflorum, pre-emergence, 240 h; for pest or weed control at 31 g/ha: 31 g ai/ha, 0 to 100 scale (0 no effect, 100 complete control), read-out: Ryegrass, Italian plant response rating; for pest or weed control at 125 g/ha: 125 g ai/ha, 0 to 100 scale, read-out: Plant response rating, Ryegrass, Italian
Source text: as §1, §2

kochia (Kochia scoparia) [4] = experiment: Test A preemergence; details: Bassia scoparia, pre-emergence, 240 h; for pest or weed control at 31 g/ha: 31 g ai/ha, 0 to 100 scale (0 no effect, 100 complete control), read-out: Kochia plant response rating; for pest or weed control at 125 g/ha: 125 g ai/ha, 0 to 100 scale, read-out: Plant response rating, Kochia
Source text: as §1, §2

[5] = tested on: giant foxtail (Setaria faberii); experiment: Test A preemergence; details: Setaria faberi, pre-emergence, 240 h; for pest or weed control at 31 g/ha: 31 g ai/ha, 0 to 100 scale (0 no effect, 100 complete control), read-out: Foxtail, Giant plant response rating; for pest or weed control at 125 g/ha: 125 g ai/ha, 0 to 100 scale, read-out: Plant response rating, Foxtail, Giant
Source text: as §1, §2

[6] = tested on: pigweed (Amaranthus retroflexus); experiment: Test A preemergence; details: Amaranthus retroflexus, pre-emergence, 240 h; for pest or weed control at 31 g/ha: 31 g ai/ha, 0 to 100 scale (0 no effect, 100 complete control), read-out: Pigweed plant response rating; for pest or weed control at 125 g/ha: 125 g ai/ha, 0 to 100 scale, read-out: Plant response rating, Pigweed
Source text: as §1, §2

[7] = tested on: barnyardgrass (Echinochloa crus-galli); experiment: Test A postemergence; details: Echinochloa crus-galli, post-emergence, 240 h, 0 to 100 scale, read-out: Plant response rating, Barnyardgrass; for pest or weed control at 31 g/ha: 31 g ai/ha; for pest or weed control at 125 g/ha: 125 g ai/ha
Source text: as §1, §2

[8] = tested on: ragweed (common ragweed, Ambrosia elatior); experiment: Test A postemergence; details: Ambrosia artemisiifolia, post-emergence, 240 h, 0 to 100 scale, read-out: Plant response rating, Ragweed; for pest or weed control at 31 g/ha: 31 g ai/ha; for pest or weed control at 125 g/ha: 125 g ai/ha
Source text: as §1, §2

[9] = tested on: wheat (Triticum aestivum); experiment: Test A postemergence; details: Triticum aestivum, post-emergence, 240 h, 0 to 100 scale, read-out: Plant response rating, Wheat; for plant injury at 31 g/ha: 31 g ai/ha; for plant injury at 125 g/ha: 125 g ai/ha
Source text: as §1, §2

[10] = tested on: Italian ryegrass (Lolium multiflorum); experiment: Test A postemergence; details: Lolium multiflorum, post-emergence, 240 h, 0 to 100 scale, read-out: Plant response rating, Ryegrass, Italian; for pest or weed control at 31 g/ha: 31 g ai/ha; for pest or weed control at 125 g/ha: 125 g ai/ha
Source text: as §1, §2

kochia (Kochia scoparia) [11] = experiment: Test A postemergence; details: Bassia scoparia, post-emergence, 240 h, 0 to 100 scale, read-out: Plant response rating, Kochia; for pest or weed control at 31 g/ha: 31 g ai/ha; for pest or weed control at 125 g/ha: 125 g ai/ha
Source text: as §1, §2

[12] = tested on: giant foxtail (Setaria faberii); experiment: Test A postemergence; details: Setaria faberi, post-emergence, 240 h, 0 to 100 scale, read-out: Plant response rating, Foxtail, Giant; for pest or weed control at 31 g/ha: 31 g ai/ha; for pest or weed control at 125 g/ha: 125 g ai/ha
Source text: as §1, §2

[13] = tested on: pigweed (Amaranthus retroflexus); experiment: Test A postemergence; details: Amaranthus retroflexus, post-emergence, 240 h, 0 to 100 scale, read-out: Plant response rating, Pigweed; for pest or weed control at 31 g/ha: 31 g ai/ha; for pest or weed control at 125 g/ha: 125 g ai/ha
Source text: as §1, §2

corn (Zea mays) = experiment: Test A postemergence; details: Zea mays, post-emergence, 240 h, 0 to 100 scale; for Corn plant response rating (crop injury, 0 = no effect, 100 = complete kill) at 31 g/ha: 31 g ai/ha; for Corn plant response rating (crop injury, 0 = no effect, 100 = complete kill) at 125 g/ha: 125 g ai/ha
Source text: as §1, §2

[14] = tested on: blackgrass (Alopecurus myosuroides); experiment: Test A postemergence; details: Alopecurus myosuroides, post-emergence, 240 h, 0 to 100 scale, read-out: Plant response rating, Blackgrass; for pest or weed control at 31 g/ha: 31 g ai/ha; for pest or weed control at 125 g/ha: 125 g ai/ha
Source text: as §1, §2

[15] = tested on: galium (catchweed bedstraw, Galium aparine); experiment: Test A postemergence; details: Galium, post-emergence, 240 h, 0 to 100 scale, read-out: Plant response rating, Galium; for pest or weed control at 31 g/ha: 31 g ai/ha; for pest or weed control at 125 g/ha: 125 g ai/ha
Source text: as §1, §2

Structure (SMILES): N#Cc1cccc(Oc2ncc(Cl)cn2)c1Oc1cccnc1 [Compound 8]
- pest or weed control at 31 g/ha [1]: 0%
- pest or weed control at 125 g/ha [1]: 0%
- pest or weed control at 31 g/ha [2]: 0%
- pest or weed control at 125 g/ha [2]: 0%
- pest or weed control at 31 g/ha [3]: 0%
- pest or weed control at 125 g/ha [3]: 0%
- pest or weed control at 31 g/ha (kochia (Kochia scoparia) [4]): 0%
- pest or weed control at 125 g/ha (kochia (Kochia scoparia) [4]): 0%
- pest or weed control at 31 g/ha [5]: 0%
- pest or weed control at 125 g/ha [5]: 0%
- pest or weed control at 31 g/ha [6]: 0%
- pest or weed control at 125 g/ha [6]: 10%
- pest or weed control at 31 g/ha [7]: 0%
- pest or weed control at 125 g/ha [7]: 10%
- pest or weed control at 31 g/ha [8]: 0%
- pest or weed control at 125 g/ha [8]: 0%
- plant injury at 31 g/ha [9]: 0%
- plant injury at 125 g/ha [9]: 0%
- pest or weed control at 31 g/ha [10]: 0%
- pest or weed control at 125 g/ha [10]: 0%
- pest or weed control at 31 g/ha (kochia (Kochia scoparia) [11]): 10%
- pest or weed control at 125 g/ha (kochia (Kochia scoparia) [11]): 30%
- pest or weed control at 31 g/ha [12]: 0%
- pest or weed control at 125 g/ha [12]: 0%
- pest or weed control at 31 g/ha [13]: 10%
- pest or weed control at 125 g/ha [13]: 20%
- Corn plant response rating (crop injury, 0 = no effect, 100 = complete kill) at 31 g/ha (corn (Zea mays)): 0%
- Corn plant response rating (crop injury, 0 = no effect, 100 = complete kill) at 125 g/ha (corn (Zea mays)): 10%
- pest or weed control at 31 g/ha [14]: 0%
- pest or weed control at 125 g/ha [14]: 0%
- pest or weed control at 31 g/ha [15]: 10%
- pest or weed control at 125 g/ha [15]: 20%

Structure (SMILES): N#Cc1cccc(Oc2ncc(F)cn2)c1Oc1ccc(Br)cn1 [Compound 9]
- pest or weed control at 31 g/ha [1]: 30%
- pest or weed control at 125 g/ha [1]: 90%
- pest or weed control at 31 g/ha [2]: 0%
- pest or weed control at 125 g/ha [2]: 10%
- pest or weed control at 31 g/ha [3]: 0%
- pest or weed control at 125 g/ha [3]: 0%
- pest or weed control at 31 g/ha (kochia (Kochia scoparia) [4]): 40%
- pest or weed control at 125 g/ha (kochia (Kochia scoparia) [4]): 100%
- pest or weed control at 31 g/ha [5]: 30%
- pest or weed control at 125 g/ha [5]: 100%
- pest or weed control at 31 g/ha [6]: 100%
- pest or weed control at 125 g/ha [6]: 100%
- pest or weed control at 31 g/ha [7]: 0%
- pest or weed control at 125 g/ha [7]: 50%
- pest or weed control at 31 g/ha [8]: 30%
- pest or weed control at 125 g/ha [8]: 70%
- plant injury at 31 g/ha [9]: 0%
- plant injury at 125 g/ha [9]: 40%
- pest or weed control at 31 g/ha [10]: 20%
- pest or weed control at 125 g/ha [10]: 70%
- pest or weed control at 31 g/ha (kochia (Kochia scoparia) [11]): 60%
- pest or weed control at 125 g/ha (kochia (Kochia scoparia) [11]): 100%
- pest or weed control at 31 g/ha [12]: 10%
- pest or weed control at 125 g/ha [12]: 70%
- pest or weed control at 31 g/ha [13]: 50%
- pest or weed control at 125 g/ha [13]: 100%
- Corn plant response rating (crop injury, 0 = no effect, 100 = complete kill) at 31 g/ha (corn (Zea mays)): 0%
- Corn plant response rating (crop injury, 0 = no effect, 100 = complete kill) at 125 g/ha (corn (Zea mays)): 10%
- pest or weed control at 31 g/ha [14]: 30%
- pest or weed control at 125 g/ha [14]: 80%
- pest or weed control at 31 g/ha [15]: 70%
- pest or weed control at 125 g/ha [15]: 100%
